Results on twelve compounds are retold here after patent publication US9326984B2, “Compounds and pharmaceutical compositions for treating disorders associated with the 5-HT1A and 5-HT2A receptors” (priority 2010, dated 2016).

SMILES strings stand for the structures.

In one assay the target is T1, 5-HT1A receptors (Rattus norvegicus, UniProt P19327).
T1 construct: The assay tissue was rat hippocampus; from tissue; host or cells: rat hippocampus
T1 sequence (P19327 1-422): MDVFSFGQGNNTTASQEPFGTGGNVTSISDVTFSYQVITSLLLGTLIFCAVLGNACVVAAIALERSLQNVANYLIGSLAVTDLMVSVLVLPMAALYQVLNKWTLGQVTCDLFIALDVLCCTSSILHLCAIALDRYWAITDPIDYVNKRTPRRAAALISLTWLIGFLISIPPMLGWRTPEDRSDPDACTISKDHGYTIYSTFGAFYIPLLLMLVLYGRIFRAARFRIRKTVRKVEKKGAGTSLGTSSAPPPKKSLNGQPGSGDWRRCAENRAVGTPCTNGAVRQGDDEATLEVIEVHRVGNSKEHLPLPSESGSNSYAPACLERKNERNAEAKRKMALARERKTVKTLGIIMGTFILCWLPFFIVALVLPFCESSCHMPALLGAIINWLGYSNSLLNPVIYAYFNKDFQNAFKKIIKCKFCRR
The assay can be described thus: In vitro affinity (radioligand binding inhibition) assay, 3[H]-8-OH-DPAT, rat hippocampus. The following applies: for IC50: 3[H]-8-OH-DPAT 1 nM, 3-3000 nM in duplicate, read-out: 5-HT1A CI50; for IC50 / inhibition at 0.03 µM / inhibition at 0.1 µM / inhibition at 0.3 µM: rat hippocampus; for 5-HT2A/5-HT1A CI502A/CI501A: ratio of CI50 5-HT2A to CI50 5-HT1A; for 5-HT1A CI50 compared with the comparative compound: comparison in words/fold versus Flibanserin; for inhibition at 0.03 µM: 30 nM; for inhibition at 0.03 µM / inhibition at 0.1 µM / inhibition at 0.3 µM: read-out: 5-HT1A Inhibition Percentage; for inhibition at 0.1 µM: 100 nM; for inhibition at 0.3 µM: 300 nM. Here is the method:
(§1) The determination of the activity of the synthesized compounds was conducted through assays assessing affinity with the 5-HT1A and 5-HT2A serotonin receptors. The assays used are based on the binding ratings of the substances being tested at different concentrations, compared to the affinity in the single concentration of the radioligands (markers) that have a specific affinity for these receptors.
(§2) These assays, known as binding assays and also known as inhibition experiments, are able to determine the affinity of a substance through the receptor, provided that this substance is soluble under the assay conditions.
(§3) In an inhibition experiment, the quantity of an inhibitor substance (non radioactive—sample or compound being tested) included in the incubation is the only variable, meaning that it is possible to determine for each test drug concentration, the binding inhibition percentage of the radioligand.
(§4) CI50 is a value defined as the concentration of an unbranded substance (test sample) required to inhibit the specific binding of the radioligand in 50% of the receptors.
(§5) The affinity assays with the 5-HT1A and 5-HT2A receptors of the compounds addressed by this invention were conducted by the Biochemical and Molecular Pharmacology Laboratory at the Biomedical Science Institute in Rio de Janeiro Federal University (UFRJ), using its own protocols.
(§6) […] The development of the experiment protocol to assess compounds with affinity for the 5-HT1A receptors was developed on the basis of the experiments conducted by Hall et al (Journal of Neurochemistry (1985) 44: 1685-1696); Mongeau et al (Brain Research (1992) 590: 229-238) and Peroutka (Journal of Neurochemistry (1986) 47: 529-540). The 5-HT2A receptors were based on the studies conducted by Johnson et al (Naunyn-Schmiedeberg's Arch. Pharmacol. (1996) 354 (2): 205-209); Leysen et al (Molecular Pharmacology (1982) 21: 301-314) and Nelson et al (Journal of Pharmacology and Experimental Therapeutics (1993) 265: 1272-1279).
The affinity with the 5-HT1A receptors was assayed by using 3[H]-8-OH-DPAT (3[H]-8-hydroxy-N,N-dipropyl-2-aminotetraline) (1 nM) as a ligand, and 5-HT (5-hydroxytiptamine-serotonin) (10 μM) as a non-specific ligand. The assay tissue was rat hippocampus.
(§7) In order to determine the affinity with the 5-HT2A receptors, 3[H]-ketanserin (1 nM) was used as a ligand and ketanserin (1 μM) as a non-specific ligand. The assay tissue was rat cortex. Table 1 below summarizes the CI50 values obtained for the inventive compounds presented in Examples 1 and 8. In order to determine the CI50 of these compounds, the inhibition assays were conducted using the compounds at concentrations of 3, 10, 30, 100, 300, 1000 and 3000 nM (in duplicate) for both receptors.

The target of a further assay is T2, 5-HT2A receptors (Rattus norvegicus, UniProt P14842).
T2 construct: The assay tissue was rat cortex; from tissue; host or cells: rat cortex
Briefly: In vitro affinity (radioligand binding inhibition) assay, 3[H]-ketanserin, rat cortex. The following applies: for IC50: 3[H]-ketanserin 1 nM, rat cortex, 3-3000 nM in duplicate, read-out: 5-HT2A CI50; for 5-HT2A CI50/affinity compared with the comparative compound: comparison in words versus Flibanserin (and Example 1); for inhibition at 0.3 µM / inhibition at 1 µM / inhibition at 3 µM: read-out: 5-HT2A Inhibition Percentage. Here is the method: as §1, §2, §3, §4, §5, §6, §7

The test system of another assay is 5-HT receptors. The assay can be described thus: In vivo efficacy test: Serotonin Syndrome Model in rats (modified Irwin method). On the set-up: species or system rat. The conditions noted are these: 15 mg/kg intraperitoneal, observed 15, 30 and 60 minutes after administration. Here is the method:
For the efficacy assay, the compounds addressed by this invention were submitted to the modified Irwin assay. The assays were conducted by Porsolt, using a specific protocol for evaluation.
In order to determine the in vivo efficacy of the compounds addressed by this invention, the Serotonin Syndrome Model in rats was used. The model was based in the Irwin method (Psychopharmacologia (1968), 13: 222-257), adapted to assess the effects of seroton agonists pursuant to Martin et al (Journal of Pharmacol. Meth. (1985), 13: 193-200) and Ortman et al (Naunyn-Schmiedeberg's Arch. Pharmacol (1981), 316: 225-230).
Two animals from each group were assessed through a series of separate observations. Escitalopram was used as the positive control for the study.
Behavioral and physiological alterations as well as neurotoxicity symptoms, rectal temperature and pupil diameter were recorded.
Additionally, the specific signs related to the stimulation of the 5-HT receptors were observed and quantified, being: head twitches (HT), fore paw treading (FPT), flat body posture (FBP), hind limb splay (HLS), lower lip retraction (LLR) and spontaneous tail flicks (STF) (Straub).
The observations were conducted at 15, 30 and 60 minutes after administration of the compounds being tested.
The compounds were tested as set forth in Examples 1 and 7. As the comparative compound 1,3-dihydro-1-(2-(4-(3-(trifluoromethyl)phenyl)-1-piperazinyl)ethyl)-2H-benzimidizol-2-one (Flibanserin) was used. All the compounds were administered at a dose of 15 mg/kg, intraperitoneal.
The observations of the specific stimulation data of the 5-HT receptors by each compound are presented in the graph given in FIG. 1.

As a reminder, the inhibition is the drop in the measured response relative to a control, in per cent.

T2 sequence (P14842 whole entry): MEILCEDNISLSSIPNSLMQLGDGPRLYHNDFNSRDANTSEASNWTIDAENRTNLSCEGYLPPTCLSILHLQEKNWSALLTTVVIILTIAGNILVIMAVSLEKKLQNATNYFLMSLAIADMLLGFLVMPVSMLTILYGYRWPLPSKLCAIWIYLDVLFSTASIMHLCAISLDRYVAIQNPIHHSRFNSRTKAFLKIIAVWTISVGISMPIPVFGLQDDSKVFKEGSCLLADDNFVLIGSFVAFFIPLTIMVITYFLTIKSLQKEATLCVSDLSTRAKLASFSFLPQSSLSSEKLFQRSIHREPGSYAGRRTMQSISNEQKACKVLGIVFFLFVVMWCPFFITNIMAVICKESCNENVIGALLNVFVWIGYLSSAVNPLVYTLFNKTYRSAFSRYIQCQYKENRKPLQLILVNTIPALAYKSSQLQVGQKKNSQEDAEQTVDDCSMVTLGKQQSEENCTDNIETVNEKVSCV

For `O=c1[nH]c2ccccc2n1CCN1CCN(c2cccc(C(F)(F)F)c2)CC1` [Comparative Compound, 1.3-Dihydro-1-(2-(4-(3-(trifluoromethyl)phenyl)-1-piperazinyl)ethyl)-2H-benzimidizol-2-one, reference compound], at 5-HT1A receptors, the IC50 came to 47 nM and the “5-HT2A/5-HT1A CI502A/CI501A” value is listed as 9.6. Also, the IC50 at 5-HT2A receptors worked out at 453 nM. Moreover, the “signs of stimulation of the 5-HT receptors (HT, FPT, FBP, HLS, LLR, STF)” value (“signs” for short) in the assay with 5-HT receptors is recorded as “only one presented signs of stimulation of the 5-HT receptors, which were spontaneous tail flicks”.
Take `O=c1c2ccccc2ncn1CCN1CCN(c2cccc(C(F)(F)F)c2)CC1` [Example 1, 3-(2-(4-(3-(trifluoromethyl)phenyl)piperazine-1-yl)ethyl)quinazoline-4 (3H)-one]: at 5-HT1A receptors, the IC50 came to 47 nM, the “5-HT1A CI50 compared with the comparative compound” value is “the same CI50 value as the comparative compound” and the “5-HT2A/5-HT1A CI502A/CI501A” value is 12. In addition, at 5-HT2A receptors, the IC50 came out at 570 nM and the “5-HT2A CI50/affinity compared with the comparative compound” value was “a value slightly higher than the value obtained for the comparative compounds”. Also, in the assay on 5-HT receptors, the “signs” value is given as “triggered spontaneous tail flicks (STF)”.
On to `Cc1ccccc1N1CCN(CCn2cnc3ccccc3c2=O)CC1` [Example 2, 3-(2-(4-o-tolylpiperazine-1-yl)ethyl)quinazoline-4 (3H)-one], for which, at 5-HT1A receptors, the inhibition at 0.03 µM is 21% and the inhibition at 0.1 µM amounted to 51%. In addition, on 5-HT2A receptors, the inhibition at 0.3 µM was determined as 61% and the inhibition at 1 µM was found to be 82%.
For `Cc1cccc(N2CCN(CCn3cnc4ccccc4c3=O)CC2)c1C` [Example 3, 3-(2-(4-(2,3-dimethylphenyl)piperazine-1-yl)ethyl)quinazoline-4 (3H)-one], in that order: 47%, 84%, 89% and 88%.
Turning to `O=c1c2ccccc2ncn1CCN1CCN(c2ccccc2Cl)CC1` [Example 4, 3-(2-(4-(2-chlorophenyl)piperazine-1-yl)ethyl)quinazoline-4 (3H)-one], at 5-HT1A receptors, the inhibition at 0.03 µM came out at 22% and the inhibition at 0.1 µM worked out at 84%. On 5-HT2A receptors, the inhibition at 0.3 µM is 48% and the inhibition at 1 µM stood at 77%.
For the compound `N#Cc1ccccc1N1CCN(CCn2cnc3ccccc3c2=O)CC1` [Example 5, 3-(2-(4-(2-cyanophenyl)piperazine-1-yl)ethyl)quinazoline-4 (3H)-one], on 5-HT1A receptors, the inhibition at 0.03 µM turned out to be 12% and the inhibition at 0.1 µM came to 49%. In addition, on 5-HT2A receptors, the inhibition at 0.3 µM turned out to be 38% and the inhibition at 1 µM came to 78%.
The like results for `COc1ccccc1N1CCN(CCn2cnc3ccccc3c2=O)CC1` [Example 6, 3-(2-(4-(2-methoxyphenyl)piperazine-1-yl)ethyl)quinazoline-4 (3H)-one] were, in that order, 38%, 66%, 43% and 63%.
Turning to `CCc1nc2ccccc2c(=O)n1CCN1CCN(c2cccc(C(F)(F)F)c2)CC1` [Example 7, 2-ethyl-3-(2-(4-(3-(trifluoromethyl)phenyl)piperazine-1-yl)ethyl)quinazoline-4 (3H)-one], on 5-HT1A receptors, the IC50 came to 253 nM, the “5-HT1A CI50 compared with the comparative compound” value is given as “five times greater” and the “5-HT2A/5-HT1A CI502A/CI501A” value was 2.7. At 5-HT2A receptors, the IC50 is 707 nM; the “5-HT2A CI50/affinity compared with the comparative compound” value is “greater affinity than the comparison compound and the compound in Example 1”. Further, the “signs” value in the assay on 5-HT receptors was “triggered fore paw treading (FPT) and more spontaneous tail flicks (STF)”.
In the case of `CCc1nc2ccccc2c(=O)n1CCN1CCN(c2cccc(C)c2C)CC1` [Example 8, 3-(2-(4-(2,3-dimethylphenyl)piperazine-1-yl)ethyl)-2-ethylquinazoline-4 (3H)-one], on 5-HT1A receptors, the inhibition at 0.03 µM stood at 26%, the inhibition at 0.1 µM came out at 76% and the inhibition at 0.3 µM was found to be 77%. For the same compound, at 5-HT2A receptors, the inhibition at 0.3 µM came to 67%, the inhibition at 1 µM was 86% and the inhibition at 3 µM is 94%.
For `CCc1nc2ccccc2c(=O)n1CCN1CCN(c2ccccc2OC)CC1` [Example 9, 2-ethyl-3-(2-(4-(2-methoxyphenyl)piperazine-1-yl)ethyl)quinazoline-4 (3H)-one], at 5-HT1A receptors, the inhibition at 0.03 µM is 17%, the inhibition at 0.1 µM is 46% and the inhibition at 0.3 µM was determined as 69%. Further, on 5-HT2A receptors, the inhibition at 0.3 µM amounted to 13%, the inhibition at 1 µM was determined as 46% and the inhibition at 3 µM turned out to be 78%.
For `CCOc1ccccc1N1CCN(CCn2c(CC)nc3ccccc3c2=O)CC1` [Example 10, 2-ethyl-3-(2-(4-(2-ethoxyphenyl)piperazine-1-yl)ethyl)quinazoline-4 (3H)-one], on 5-HT1A receptors, the inhibition at 0.03 µM amounted to 26%, the inhibition at 0.1 µM was 51% and the inhibition at 0.3 µM was 79%. For the same compound, on 5-HT2A receptors, the inhibition at 0.3 µM amounted to 8%, the inhibition at 1 µM came out at 27% and the inhibition at 3 µM came out at 58%.
For `CCc1nc2ccccc2c(=O)n1CCN1CCN(c2ccccc2Cl)CC1` [Example 11, 3-(2-(4-(2-chlorophenyl)piperazine-1-yl)ethyl)-2-ethylquinazoline-4 (3H)-one], at 5-HT1A receptors, the inhibition at 0.03 µM amounted to 5%, the inhibition at 0.1 µM was 26% and the inhibition at 0.3 µM worked out at 38%. At 5-HT2A receptors, the inhibition at 0.3 µM amounted to 25%, the inhibition at 1 µM worked out at 52% and the inhibition at 3 µM stood at 79%.
